ChEMBL document CHEMBL4414645, “Development of Robust 17(R),18(S)-Epoxyeicosatetraenoic Acid (17,18-EEQ) Analogues as Potential Clinical Antiarrhythmic Agents” (J Med Chem, 2019)

Columns and labels:
[1] = target: T1, Bifunctional epoxide hydrolase 2 (Homo sapiens) (UniProt P34913); conditions: Sf21, at 1 µM
T1 sequence (whole entry): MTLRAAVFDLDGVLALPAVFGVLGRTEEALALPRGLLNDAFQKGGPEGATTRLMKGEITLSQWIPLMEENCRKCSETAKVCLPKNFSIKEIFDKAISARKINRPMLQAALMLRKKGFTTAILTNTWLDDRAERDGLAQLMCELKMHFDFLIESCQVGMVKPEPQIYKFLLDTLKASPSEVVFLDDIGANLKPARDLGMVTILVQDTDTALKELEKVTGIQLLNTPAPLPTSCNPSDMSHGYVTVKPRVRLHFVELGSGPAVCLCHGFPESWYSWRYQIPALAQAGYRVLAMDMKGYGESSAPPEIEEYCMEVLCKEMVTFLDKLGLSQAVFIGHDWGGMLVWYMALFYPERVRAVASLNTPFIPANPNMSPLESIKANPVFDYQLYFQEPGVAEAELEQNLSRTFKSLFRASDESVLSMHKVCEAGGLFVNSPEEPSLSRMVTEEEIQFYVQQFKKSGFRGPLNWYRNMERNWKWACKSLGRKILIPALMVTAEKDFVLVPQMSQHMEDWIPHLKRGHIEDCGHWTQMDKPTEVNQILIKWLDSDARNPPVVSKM
Description: Inhibition of N-terminal His-tagged recombinant human soluble epoxide hydrolase (2 to 555 residues) expressed in Sf21 insect cells at 1 uM using as 14,15-EET as substrate after 10 mins by reversed-phase HPLC assay relative to control

[2] = target: T1, Bifunctional epoxide hydrolase 2 (Homo sapiens); test: Inhibition of N-terminal His-tagged recombinant human soluble epoxide hydrolase (2 to 555 residues) expressed in Sf21 insect cells at 10 uM using as 14,15-EET as substrate after 10 mins by reversed-phase HPLC assay relative to control
[3] = Negative chronotropic activity in Wistar rat neonatal cardiomyocytes assessed as change in basal beating rate after 7 mins by inverted microscopic method; format: functional
[4] = Half life in human hepatocytes at 1 uM measured up to 180 mins by LC-ESI-MS/MS analysis; format: ADME, cell-based, Hepatocyte
[5] = Intrinsic clearance in human hepatocytes assessed per million cells at 1 uM measured up to 180 mins by LC-ESI-MS/MS analysis; format: ADME, cell-based, Hepatocyte; conditions: read-out: CLH
Cytochrome P450 2J2 = target: T2, Cytochrome P450 2J2 (Homo sapiens, UniProt P51589); test: Inhibition of recombinant human CYP2J2 expressed in baculovirus infected insect cells co-expressing NADPH-CYP reductase and cytochrome b5 assessed as reduction in CYP2J2-mediated EPA epoxidation by measuring sum of EEQ and DiHETEs level at 1 to 50 uM using EPA as substrate preincubated for 5 mins followed by NADPH addition and measured after 15 mins by LCMS/MS analysis; format: ADME; conditions: recombinant enzyme, 0.25 h
T2 sequence (P51589 whole entry): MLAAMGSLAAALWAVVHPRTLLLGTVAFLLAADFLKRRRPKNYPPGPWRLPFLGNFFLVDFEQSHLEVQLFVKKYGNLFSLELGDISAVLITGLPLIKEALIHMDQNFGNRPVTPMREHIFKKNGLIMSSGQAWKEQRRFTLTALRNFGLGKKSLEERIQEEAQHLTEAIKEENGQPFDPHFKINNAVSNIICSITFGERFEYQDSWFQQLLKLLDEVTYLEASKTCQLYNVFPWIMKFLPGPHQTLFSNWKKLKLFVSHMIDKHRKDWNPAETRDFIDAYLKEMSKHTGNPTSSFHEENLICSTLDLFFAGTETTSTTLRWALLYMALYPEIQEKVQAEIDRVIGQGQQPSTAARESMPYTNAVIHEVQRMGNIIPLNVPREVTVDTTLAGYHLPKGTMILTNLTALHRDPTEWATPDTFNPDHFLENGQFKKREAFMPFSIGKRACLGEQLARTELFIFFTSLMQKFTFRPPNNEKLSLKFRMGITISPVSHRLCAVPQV

[6] = Stability in human plasma assessed as compound remaining at 10 uM measured up to 60 mins by LC-ESI-MS/MS analysis; format: ADME, cell-free; conditions: read-out: Stability
Cytochrome P450 [7] = test: Drug metabolism in human liver microsomes assessed as CYP450-mediated formation of [+O] metabolites at 1 uM after 60 mins in absence of NADPH by LC-MS analysis; format: ADME; conditions: 1 h
[8] = target: T3, Epoxide hydrolase 1/Bifunctional epoxide hydrolase 2 (Homo sapiens, UniProt P07099+P34913); test: Drug metabolism in human liver microsomes assessed as microsomal/soluble epoxide hydrolase mediated formation of [+O + H2O] metabolites at 1 uM after 60 mins in presence of NADPH by LC-MS analysis; format: ADME; conditions: 1 h
T3 sequence (P07099 whole entry): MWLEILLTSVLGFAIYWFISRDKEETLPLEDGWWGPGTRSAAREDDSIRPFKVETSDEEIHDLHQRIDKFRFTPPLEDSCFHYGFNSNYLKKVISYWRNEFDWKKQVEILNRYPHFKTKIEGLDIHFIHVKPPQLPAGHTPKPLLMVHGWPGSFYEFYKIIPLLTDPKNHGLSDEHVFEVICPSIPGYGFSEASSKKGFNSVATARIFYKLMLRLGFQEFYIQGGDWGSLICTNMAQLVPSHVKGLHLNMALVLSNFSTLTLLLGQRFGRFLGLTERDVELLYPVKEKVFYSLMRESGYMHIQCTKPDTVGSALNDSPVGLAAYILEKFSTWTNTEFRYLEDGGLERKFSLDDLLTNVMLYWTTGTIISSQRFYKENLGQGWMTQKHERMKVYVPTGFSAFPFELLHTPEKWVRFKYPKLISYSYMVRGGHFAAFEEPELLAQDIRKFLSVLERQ
T3 sequence (P34913 whole entry): T1 sequence (whole entry)

Cytochrome P450 [9] = test: Drug metabolism in human liver microsomes assessed as CYP450-mediated formation of [+O] metabolites at 1 uM after 60 mins in presence of NADPH by LC-MS analysis; format: ADME; conditions: 1 h
[10] = target: T3, Epoxide hydrolase 1/Bifunctional epoxide hydrolase 2; test: Drug metabolism in human liver microsomes assessed as microsomal/soluble epoxide hydrolase mediated formation of [+O + H2O] metabolites at 1 uM after 60 mins in absence of NADPH by LC-MS analysis; format: ADME; conditions: 1 h
[11] = Aqueous solubility of the compound in pH 7.4 potassium phosphate buffer at 2 mg after 1 to 24 hrs by RP-HPLC method; format: physicochemical

CNC(=O)C(=O)NCCCC/C=C\CCCCCCCCCC(=O)N[C@@H](C)C(=O)[O-].[Na+]
inhibition [1]: 1.9% | inhibition [2]: 18.7% | Activity [3]: -1.1 bpm

CCOc1ccc2ccc(=O)oc2c1 [ETHOXYCOUMARIN]
half-life at 1 µM [4]: 20.5 min | hepatocyte CLint at 1 µM [5]: 43.2 µL/min/1e6 cells

CNC(=O)C(=O)NCCCC/C=C\CCCCCCCCCP(=O)([O-])[O-].[Na+].[Na+]
inhibition [1]: 6.8% | inhibition [2]: 37.7% | Activity [3]: -21.3 bpm

CNC(=O)C(=O)NCCCCc1ccccc1CCCCCCCCCP(=O)([O-])[O-].[Na+].[Na+]
inhibition [1]: 1.3% | inhibition [2]: 1.8% | Activity [3]: -21.8 bpm

CC(C)(C)c1ccc(C(O)CCCN2CCC(C(O)(c3ccccc3)c3ccccc3)CC2)cc1 (stereo unspecified) [TERFENADINE]
inhibition (INH) (Cytochrome P450 2J2): Active

CC(C)[N+](C)(CCOC(=O)C1c2ccccc2Oc2ccccc21)C(C)C [PROPANTHELINE BROMIDE]
remaining at 1 h, 10 µM [6]: 2.6%

CCCCc1oc2ccccc2c1C(=O)c1cc(I)c(OCCN(CC)CC)c(I)c1 [AMIODARONE]
inhibition (INH) (Cytochrome P450 2J2): Active

CNC(=O)C(=O)NCCCC/C=C\CCCCCCCCCC1=NO[S+]([O-])N1 (stereo unspecified)
inhibition [1]: -0.2% | inhibition [2]: 10% | Activity [3]: -24.3 bpm

CNC(=O)C(=O)NCCCC/C=C\CCCCCCCCCP(=O)(OCOC(=O)C(C)(C)C)OCOC(=O)C(C)(C)C
inhibition [1]: 5.1% | inhibition [2]: 38.4% | Activity [3]: -23.5 bpm

CCCCCCCC/C=C\CCCCCCCC(=O)O [OLEIC ACID]
Drug metabolism (Cytochrome P450 [7]): Metabolite_Notdetected | Drug metabolism [8]: Metabolite_Detected | Drug metabolism (Cytochrome P450 [9]): Metabolite_Detected | Drug metabolism [10]: Metabolite_Notdetected

CCNC(=O)NCCCC/C=C\CCCCCCCCCC(=O)O
inhibition [1]: 4.7% | inhibition [2]: 23.4%

CNC(=O)C(=O)NCCCC/C=C\CCCCCCCCCS(=O)(=O)[O-].[Na+]
inhibition [1]: 5.2% | inhibition [2]: 0% | Activity [3]: -20.7 bpm

CNC(=O)C(=O)NCCCC/C=C\CCCCCCCCCC(=O)N(C)CC(=O)[O-].[Na+]
inhibition [1]: -0.6% | inhibition [2]: 17.8% | Activity [3]: -15.6 bpm

CCNC(=O)NCCCC/C=C\CCCCCCCCCC(=O)OCCOCCOCCO
inhibition [1]: 26.5% | solubility [11]: Soluble | inhibition [2]: 76.6% | Activity [3]: -19.8 bpm
